Experimental data reported in US20120046363A1, “DOCOSAHEXAENOIC ACID FOR THE TREATMENT OF HEART FAILURE” (University of Maryland, Baltimore, priority 2009, published 2012).

How the values were obtained:
Format in all cases: in vivo, male Wistar rats
[1] = system: isolated cardiac mitochondria; experiment: Cardiac mitochondrial cardiolipin (CL) content and composition by electrospray ionization mass spectrometry; details: Series 1, 8 weeks diet; CTRL 10.7±0.8; DHA vs CTRL p<0.08
Protocol: Experimental Design: The animal protocol was conducted according to the Guideline for the Care and Use of Laboratory Animals (NIH publication 85-23) and was approved by the University of Maryland School of Medicine Institutional Animal Care and Use Committee. Investigators were blinded to treatment when measurements were performed. The animals were maintained on a reverse 12-h light-dark cycle and all procedures were performed in the fed state between 3 and 6 h from the start of the dark phase. Two series of experiments were performed. In the initial studies (Series 1) male Wistar rats weighing 190-200 g were fed a standard low fat diet (CTRL) or modified standard diet containing DHA or EPA at 2.5% of total caloric intake, which corresponds to a human intake of approximately 5.5 g/day (calculated assuming an energy intake of 2000 kcal/day and 9 kcal/g of fat). The rats were maintained on the diet for 8 weeks. Following dietary treatment, rats were anesthetized with isoflurane, blood was drawn, and the heart was harvested for biochemical analysis and mitochondrial isolation. Plasma from these animals was analyzed for free fatty acids and triglyceride levels, and cardiac mitochondria for respiration, Ca^2+ retention capacity (an index of MPTP opening), VDAC and cyclophilin D, and membrane phospholipid composition as described below. […]
Mitochondrial Preparation: Mitochondria were isolated as previously described^228. […] The concentration of mitochondrial protein was measured by the Lowry method using bovine serum albumin as a standard.
(§1) Membrane Lipid Composition: Cardiac phospholipid fatty acid composition was assessed in a subset of animals from Series 1 (n=7-9/group) on isolated cardiac mitochondria homogenates by gas chromatography with a flame ionization detector according to a modification of the transesterification method as previously described^228. CL composition was assessed on isolated cardiac mitochondria by electrospray ionization mass spectrometry using 1,1′,2,2′-tetramyristoyl CL as an internal standard as previously described (n=9/group)^228,229, 230.

[2] = system: mitochondrial permeability transition pore (MPTP); experiment: Ca2+ retention capacity (index of MPTP opening) in mitochondria from diet-treated rats, Series 1
Protocol: (§2) Experimental Design: The animal protocol was conducted according to the Guideline for the Care and Use of Laboratory Animals (NIH publication 85-23) and was approved by the University of Maryland School of Medicine Institutional Animal Care and Use Committee. Investigators were blinded to treatment when measurements were performed. The animals were maintained on a reverse 12-h light-dark cycle and all procedures were performed in the fed state between 3 and 6 h from the start of the dark phase. Two series of experiments were performed. In the initial studies (Series 1) male Wistar rats weighing 190-200 g were fed a standard low fat diet (CTRL) or modified standard diet containing DHA or EPA at 2.5% of total caloric intake, which corresponds to a human intake of approximately 5.5 g/day (calculated assuming an energy intake of 2000 kcal/day and 9 kcal/g of fat). The rats were maintained on the diet for 8 weeks. Following dietary treatment, rats were anesthetized with isoflurane, blood was drawn, and the heart was harvested for biochemical analysis and mitochondrial isolation. Plasma from these animals was analyzed for free fatty acids and triglyceride levels, and cardiac mitochondria for respiration, Ca^2+ retention capacity (an index of MPTP opening), VDAC and cyclophilin D, and membrane phospholipid composition as described below. Following completion of Series 1, a second series of animal studies (Series 2) were performed to assess mitochondrial swelling using a light scattering assay, and the effects of different respiratory substrates on Ca^2+ retention capacity in mitochondria from control and DHA supplemented rats. Animals were treated for 10 weeks and were fed either CTRL or DHA (2.5% of total caloric intake).
(§3) Mitochondrial Preparation: Mitochondria were isolated as previously described^228. LV tissue (400-500 mg) was minced and homogenized in 1:10 cold modified Chappel-Perry buffer (100 mM KCl, 50 mM MOPS, 5 mM MgSO4, 1 mM ATP, 1 mM EGTA, 2 mg/ml BSA), and the homogenates were centrifuged at 500×g. Subsequent centrifugation allowed for separation and purification of the subsarcolemmal mitochondria. The concentration of mitochondrial protein was measured by the Lowry method using bovine serum albumin as a standard.

[3] = system: isolated cardiac mitochondria; experiment: Mitochondrial respiration (oxygen consumption, Clark-type electrode); details: for P:O: measurements without oligomycin; for RCR: ratio of State 3 to State 4 rate with oligomycin
Protocol: as §2, §3
Mitochondrial respiration: Mitochondrial oxygen consumption was measured using a Clark-type oxygen electrode (Qubit Systems, Ontario, Canada). Mitochondria (0.25 mg protein) were suspended in 0.5 ml solution consisting of 100 mM KCl, 50 mM MOPS, 5 mM KH2PO4, 1 mM EGTA, and 0.5 mg fatty acid-free bovine serum albumin, at pH 7.4 and 37° C. State 3 (ADP-stimulated) and state 4 (non-phosphorylating) respiration were measured with glutamate+malate (10 and 5 mM, respectively), pyruvate+malate (10 and 5 mM, respectively) and palmitoylcarnitine+malate (40 μM and 5 mM, respectively) to assess respiration through complex I-IV, while succinate+rotenone (10 mM and 7.5 μM, respectively), were used to assess respiration through complex II-IV of the ETC exclusively. State 4 respiration was also measured in the presence of oligomycin to inhibit the mitochondrial ATP synthase.

[4] = system: isolated cardiac mitochondria; experiment: Cardiac mitochondrial phospholipid fatty acid composition by gas chromatography; details: Series 1, 8 weeks diet, mean ± SEM
Protocol: as §2, §3, §1

cyclophilin D = experiment: Western blot of isolated mitochondria, densitometry; details: CTRL 1.00 ± 0.08
Protocol: (§4) Metabolic and Biochemical Parameters: Free fatty acids and triglycerides were assessed in the plasma using commercially available kits (Wako, Richmond, Va.). Mitochondrial proteins were separated by electrophoresis in 4-12% NuPage gels, transferred onto a nitrocellulose membrane, and incubated with specific antibodies to cyclophilin D and voltage-dependent anion channel (VDAC) (1:10,000 and 1:5000, respectively, both from Mitosciences, Eugene, Oreg.). Fluorescence-conjugated secondary antibodies (IRDye 800, 1:10,000; LI-COR Bioscience) were used for incubation before the membranes were scanned with Odyssey® infrared imaging system (LI-COR Bioscience). The digitized image was analyzed with Odyssey® software.

VDAC1 = experiment: as above; details: CTRL 1.00 ± 0.13
Protocol: as §4

VDAC2 = experiment: as above; details: CTRL 1.00 ± 0.15
Protocol: as §4

## CC/C=C\C/C=C\C/C=C\C/C=C\C/C=C\C/C=C\CCC(=O)O [DHA, docosahexaenoic acid]
[1]
  total CL content: 13.2±0.8 nmols/mg mito prot
[2]; glutamate + malate, without CsA, CTRL 83.0±8.7
  Ca2+ required to elicit MPTP: 134.9±11.4 nmol Ca^2+/mg mito prot
[2]; mitochondria of diet group with addition of 100 nM CsA
  Ca2+ required to elicit MPTP: 147.0±17.3 nmol Ca^2+/mg mito prot
[3]; Glutamate + Malate
  State 4 (+ oligomycin) respiration: 17.2 ± 2.0 ng atoms O · mg^−1 · min^−1
  State 4 (− oligomycin) respiration: 35.3 ± 2.9 ng atoms O · mg^−1 · min^−1
  P:O: 2.37 ± 0.18
  RCR: 7.0 ± 0.9
[3]; Glutamate + Malate, mean ± SEM
  State 3 respiration: 115.2 ± 16.2 ng atoms O · mg^−1 · min^−1
[3]; Palmityl-carnitine + Malate
  State 3 respiration: 265.7 ± 34.4 ng atoms O · mg^−1 · min^−1
  State 4 (+ oligomycin) respiration: 24.9 ± 2.6 ng atoms O · mg^−1 · min^−1
  State 4 (− oligomycin) respiration: 42.6 ± 1.9 ng atoms O · mg^−1 · min^−1
  P:O: 2.50 ± 0.12
  RCR: 11.4 ± 1.8
[3]; Pyruvate + Malate
  State 3 respiration: 240.4 ± 28.7 ng atoms O · mg^−1 · min^−1
  State 4 (+ oligomycin) respiration: 34.8 ± 4.2 ng atoms O · mg^−1 · min^−1
  State 4 (− oligomycin) respiration: 54.0 ± 3.2 ng atoms O · mg^−1 · min^−1
  P:O: 2.48 ± 0.09
  RCR: 7.7 ± 1.0
[3]; Succinate + Rotenone
  State 3 respiration: 325.2 ± 19.6 ng atoms O · mg^−1 · min^−1
  State 4 (+ oligomycin) respiration: 84.7 ± 10.1 ng atoms O · mg^−1 · min^−1
  State 4 (− oligomycin) respiration: 99.3 ± 7.0 ng atoms O · mg^−1 · min^−1
  P:O: 1.48 ± 0.06
  RCR: 4.1 ± 0.4
[3]; pyruvate+malate, absence and presence of oligomycin, vs control, p<0.05
  decrease of state 4 respiration: 30%
[3]; pyruvate+malate, vs control, p<0.05
  increase of RCR: 70%
[4]
  Mitochondrial phospholipid C18:0: 18.9 ± 0.5 molar percent of total phospholipid fatty acid
  Mitochondrial phospholipid C18:1n7: 3.7 ± 0.2 molar percent of total phospholipid fatty acid
  Mitochondrial phospholipid C18:1n9: 13.0 ± 1.0 molar percent of total phospholipid fatty acid
  Mitochondrial phospholipid C18:2n6: 23.1 ± 1.0 molar percent of total phospholipid fatty acid
  Mitochondrial phospholipid Total ω-3 PUFA: 19.2 ± 0.5 molar percent of total phospholipid fatty acid
[4]; n = 7-8/group
  Mitochondrial phospholipid C16:0: 13.3 ± 0.5 molar percent of total phospholipid fatty acid
[4]; BQL in control
  Mitochondrial phospholipid C20:3n6: 1.6 ± 0.2 molar percent of total phospholipid fatty acid
[4]; DHA
  Mitochondrial phospholipid C22:6n3: 14.8 ± 0.6 molar percent of total phospholipid fatty acid
[4]; EPA, BQL in control
  Mitochondrial phospholipid C20:5n3: 4.4 ± 0.3 molar percent of total phospholipid fatty acid
[4]; arachidonic acid (ARA)
  Mitochondrial phospholipid C20:4n6: 5.7 ± 0.2 molar percent of total phospholipid fatty acid
Cyclophilin D
  Cyclophilin D protein, densitometry: 1.01 ± 0.10
VDAC1
  VDAC 1 protein, densitometry: 1.03 ± 0.22
VDAC2
  VDAC 2 protein, densitometry: 1.02 ± 0.20
